According to the supplement of paper PMC5908809:

Assays:
[1] = tested on: normal NK cells expanded with K562-aAPC; test: percent inhibition of viability; higher = more inhibition; settings: 72 h, IL-2 2.5 ng/mL
Description: (§1)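 Drug sensitivity and resistance testing on K562-aAPC-expanded normal NK cells: 5 concentrations (10-fold steps over a 10,000-fold range), 72 h at 37 °C, viability by CellTiter-Glo normalised to DMSO and benzethonium chloride controls; DSS from the fitted curve.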

[2] = tested on: DERL-7 (IL-2 2.5 ng/mL); test: as above; settings: 72 h
[3] = tested on: IMC-1 (IL-2 20 ng/mL); test: as above; settings: 72 h
[4] = tested on: KAI3 (IL-2 2.5 ng/mL); test: as above; settings: 72 h
[5] = tested on: KHYG-1 (IL-2 2.5 ng/mL); test: as above; settings: 72 h
[6] = tested on: NK-92 (IL-2 2.5 ng/mL); test: as above; settings: 72 h
[7] = tested on: NK-YS (IL-2 2.5 ng/mL); test: as above; settings: 72 h
[8] = tested on: NKL (IL-2 2.5 ng/mL); test: as above; settings: 72 h
[9] = tested on: SNK-6 (IL-2 2.5 ng/mL); test: as above; settings: 72 h
[10] = tested on: YT (IL-2 2.5 ng/mL); test: as above; settings: 72 h
[11] = tested on: normal primary NK cells, pool 1 (3 donors) (IL-2 2.5 ng/mL); test: as above; settings: 72 h
[12] = tested on: normal primary NK cells, pool 1 (3 donors), resting (IL-2 0 ng/mL); test: as above; settings: 72 h
[13] = tested on: normal primary NK cells, pool 2 (3 donors) (IL-2 2.5 ng/mL); test: as above; settings: 72 h
[14] = tested on: normal primary NK cells, pool 3 (3 donors) (IL-2 2.5 ng/mL); test: as above; settings: 72 h
[15] = tested on: normal NK cells expanded with K562-aAPC; test: drug sensitivity score (DSS) (DSS units); higher = more sensitive; extreme values may be limits of the assay; settings: 72 h; IL-2 2.5 ng/mL
Description: as §1

[16] = tested on: DERL-7 (IL-2 2.5 ng/mL); test: as above; settings: 72 h
[17] = tested on: IMC-1 (IL-2 20 ng/mL); test: as above; settings: 72 h
[18] = tested on: KAI3 (IL-2 2.5 ng/mL); test: as above; settings: 72 h
[19] = tested on: KHYG-1 (IL-2 2.5 ng/mL); test: as above; settings: 72 h
[20] = tested on: NK-92 (IL-2 2.5 ng/mL); test: as above; settings: 72 h
[21] = tested on: NK-YS (IL-2 2.5 ng/mL); test: as above; settings: 72 h
[22] = tested on: NKL (IL-2 2.5 ng/mL); test: as above; settings: 72 h
[23] = tested on: SNK-6 (IL-2 2.5 ng/mL); test: as above; settings: 72 h
[24] = tested on: YT (IL-2 2.5 ng/mL); test: as above; settings: 72 h
[25] = tested on: normal primary NK cells, pool 1 (3 donors) (IL-2 2.5 ng/mL); test: as above; settings: 72 h
[26] = tested on: normal primary NK cells, pool 1 (3 donors), resting (IL-2 0 ng/mL); test: as above; settings: 72 h
[27] = tested on: normal primary NK cells, pool 2 (3 donors) (IL-2 2.5 ng/mL); test: as above; settings: 72 h
[28] = tested on: normal primary NK cells, pool 3 (3 donors) (IL-2 2.5 ng/mL); test: as above; settings: 72 h

COc1ccc(Cl)c(Nc2nc3ccccc3nc2NS(=O)(=O)c2cccc(NC(=O)C(C)(C)N)c2)c1 [Pilaralisib] (max concentration tested 2500 nM)
percent inhibition of viability [%]
Settings | 0.25 nM | 2.5 nM | 25 nM | 250 nM | 2500 nM
[1] | -5.86 | -9.89 | -4.45 | 9.09 | 13
[2] | 4.27 | -2.64 | 5.48 | 2.26 | 47.2
[3] | -10.7 | -5.75 | -6.19 | -0.79 | 3.28
[4] | -9.17 | -2.97 | -7.92 | 0.18 | 28.9
[5] | -8.15 | -0.08 | -3.78 | 6.51 | 17.4
[6] | 1.29 | 7.6 | 3.1 | 33.3 | 47.3
[7] | -9.63 | -5.01 | -7.74 | -2.2 | 23.1
[8] | -14.9 | -17.9 | -13.7 | 0.37 | 31.5
[9] | -25.1 | -17.9 | -11.5 | -18.6 | 12.9
[10] | -4.96 | -1.45 | 0.38 | 4.73 | 42
[11] | -2.73 | -2.17 | 6.91 | 0.33 | 11.2
[12] | -1.59 | 14 | 8.93 | 7.44 | 20.9
[13] | -6.75 | -2.47 | 3.08 | 7.62 | 22.6
[14] | -0.55 | -0.41 | 8.73 | -3.82 | 16

Settings | drug sensitivity score
[15] | 0.55
[16] | 2.77
[17] | 0
[18] | 1.25
[19] | 1.04
[20] | 6.61
[21] | 0.68
[22] | 1.45
[23] | 0.01
[24] | 2.91
[25] | 0.02
[26] | 1.41
[27] | 1.39
[28] | 0.19

C[C@H](Nc1ncnc2nc[nH]c12)c1cc2cccc(Cl)c2c(=O)n1-c1ccccc1 [Duvelisib] (max concentration tested 500 nM)
percent inhibition of viability [%]
Settings | 0.05 nM | 0.5 nM | 5 nM | 50 nM | 500 nM
[1] | -2.59 | 4.75 | 5.15 | 19.8 | 45.7
[2] | -0.14 | 9.15 | 10.2 | 25.2 | 56.5
[3] | 0.88 | -0.84 | -0.96 | -0.33 | 6.98
[4] | -4.68 | 0.86 | 7.47 | 8.25 | 24.3
[5] | 1.1 | 3.56 | 6.06 | 5.02 | 18.1
[6] | -9.06 | -4.46 | 22.4 | 26.1 | 42.3
[7] | -2.69 | -4.82 | 0.82 | -1.23 | 13
[8] | -10.5 | 7.21 | 0.54 | 24.6 | 17.3
[9] | -0.58 | 4.35 | 2.29 | 9.46 | 32.8
[10] | 0.13 | 2.78 | 3.52 | 2.82 | 12.4
[11] | -0.52 | -4.76 | 3.49 | 6.72 | 18.7
[12] | 0.72 | -3.61 | 2.62 | -2.38 | 3.26
[13] | -6.04 | 4.46 | 6.08 | 11.3 | 26.1
[14] | -13.6 | -1.02 | -2.45 | -0.85 | 21.8

Settings | drug sensitivity score
[15] | 4.43
[16] | 6.16
[17] | 0
[18] | 1.4
[19] | 0.45
[20] | 7.08
[21] | 0.07
[22] | 3.86
[23] | 2.8
[24] | 0.15
[25] | 0.83
[26] | 0
[27] | 1.9
[28] | 0.66
